Assay results taken from paper PMC4432589, “Structural basis for dynamic mechanism of nitrate/nitrite antiport by NarK” (Nature Communications, 2015).

How the values were obtained:
NarK [1] = molecular target: T1, NarK (Escherichia coli, UniProt P10903); assay: X-ray crystal structure (LCP, SIRAS and molecular replacement); details: occluded state (2.4 Å, pH 5.8, 100 mM NH4NO3) and inward-open state (2.4 Å, pH 6.0); central substrate-binding site
T1 construct: full-length gene in pET-modified vector; GFP-His8 tag cleaved by TEV protease; expressed in E. coli C41(DE3) delta-acrB; DDM/CHS purified; LCP crystals or soybean lipid proteoliposomes
T1 sequence (P10903 1-463): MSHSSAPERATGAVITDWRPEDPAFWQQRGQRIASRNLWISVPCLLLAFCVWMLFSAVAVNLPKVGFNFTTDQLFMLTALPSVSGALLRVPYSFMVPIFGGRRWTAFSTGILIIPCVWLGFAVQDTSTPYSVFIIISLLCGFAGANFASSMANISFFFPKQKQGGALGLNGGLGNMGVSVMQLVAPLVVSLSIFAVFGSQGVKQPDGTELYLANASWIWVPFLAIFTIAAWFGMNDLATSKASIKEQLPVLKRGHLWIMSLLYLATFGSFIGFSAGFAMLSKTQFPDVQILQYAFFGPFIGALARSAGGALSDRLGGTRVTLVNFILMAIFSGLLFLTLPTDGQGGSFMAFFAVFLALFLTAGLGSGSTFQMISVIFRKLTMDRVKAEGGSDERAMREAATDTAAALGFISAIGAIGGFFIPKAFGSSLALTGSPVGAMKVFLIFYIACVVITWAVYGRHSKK

NarK [2] = molecular target: T1, NarK; assay: nitrite uptake into NarK proteoliposomes, DAF-FM fluorescence; type: biochemical; details: 50 mM NaNO2 outside, 50 mM NaNO3 inside as counter-anion; pH 7.0; membrane potential; 37 °C

Compound	X-ray crystal structure (LCP, SIRAS and molecular replacement) (NarK [1])	nitrite uptake into NarK proteoliposomes, DAF-FM fluorescence (NarK [2])
O=[N+]([O-])O [nitrate]	4U4T (nitrate-bound inward-open state) and 4U4W (nitrate-bound occluded state)	
O=NO [nitrite]		We observed the uptake of nitrite when nitrate was present inside the liposomes
